Data reported in PMC3531425, “Low Resolution Solution Structure of HAMLET and the Importance of Its Alpha-Domains in Tumoricidal Activity” (PLoS ONE, 2012).

B1: HAMLET (protein)
chain: KQFTKCELSQLLKDIDGYGGIALPELICTMFHTSGYDTQAIVENNESTEYGLFQISNKLWCKSSQVPQSRNICDISCDKFLDDDITDDIMCAKKILDIKGIDYWLAHKALCTEKLEQWLCEKL

Tests used:
[1] = tested on: A549 cells; assay: K^+ flux, FluxOR potassium ion channel assay (Tl^+ influx), fluorometry; format: cell-based, human; conditions: for K^+ flux, + oleate: peptide mixed with sodium oleate; for K^+ flux, + oleate / K^+ flux, - oleate: FluxOR fluorescence; for K^+ flux, - oleate: peptide without sodium oleate; for K^+ flux, substance alone: HAMLET or sodium oleate alone, FluxOR, mean of at least two experiments
Procedure: (§1) To quantify the ion fluxes, fluorometry was measured in a plate reader (TECAN infinite F200, Tecan Group, Switzerland). For calcium fluxes measurement, the Fluo-4 NW calcium assay kit (Invitrogen) was used. For K^+ fluxes, the FluxOR™ potassium ion channel assay (Invitrogen) was used according to the manufacturer's instructions but component E was excluded. Briefly, cells were incubated with FluxOR™, which is a Tl^+ indicator. An increase in fluorescence signal corresponds to an influx of Tl^+, indicating opening of potassium channels, which was measured at 535 nm after excitation at 485 nm in the TECAN infinite plate reader. Given the driving force for K^+ flux across the plasma membrane this corresponds to K^+ efflux. Calcium and potassium fluxes was measured in 20 000 A549 cells plated in a 96-well plate. Sodium was measured in 100 000 Jurkat cells using the CoroNa Green Sodium Indicator (Invitrogen).

[2] = tested on: A549 cells; assay: Ca^2+ flux, Fluo-4 NW calcium assay, fluorometry; format: cell-based, human; conditions: for Ca^2+ flux, + oleate: peptide mixed with sodium oleate; for Ca^2+ flux, + oleate / Ca^2+ flux, - oleate: Fluo-4 fluorescence; for Ca^2+ flux, - oleate: peptide without sodium oleate; for Ca^2+ flux, substance alone: HAMLET or sodium oleate alone, Fluo-4, mean of at least two experiments
Procedure: as §1

[3] = tested on: Jurkat cells; assay: Na^+ flux, CoroNa Green Sodium Indicator, fluorometry; format: cell-based, human; conditions: for Na^+ flux, + oleate: peptide mixed with sodium oleate; for Na^+ flux, + oleate / Na^+ flux, - oleate: CoroNa Green fluorescence; for Na^+ flux, - oleate: peptide without sodium oleate; for Na^+ flux, substance alone: HAMLET or sodium oleate alone, CoroNa Green, mean of at least two experiments
Procedure: as §1

[4] = tested on: lung carcinoma or leukemia cells; assay: Tumor cell death (ATP level, PrestoBlue), cell line not given; format: cell-based, human; conditions: 3 hours
Procedure: A549 human lung carcinoma cell line and the Jurkat human acute T-cell leukemia cell line (obtained from ATCC, Manassas, VA, USA) were cultured in RPMI-1640 with non-essential amino acids (1∶100), 1 mM sodium pyruvate (all from PAA, Pasching, Austria), […] Gentamicin (Gibco, Paisley, UK) and 5% fetal calf serum (FCS) at 37°C, 5% CO2. Cells (5*10^5 cells/ml for A549 cells, 1*10^6 cells/ml for Jurkat cells) in suspension were incubated with either […] or peptide-oleate mixtures in serum-free RPMI-1640 at 37°C, 5% CO2. 5% FCS was added after 1 hour. Cell death was quantified by ATP level measurement (ATPlite Kit, PerkinElmer, Waltham, MA, Infinite F200, Tecan Group Ltd., Männedorf, Switzerland) and by using PrestoBlueTM Cell Viability Reagent (Invitrogen, Carlsbad, CA).

[5] = tested on: A549 lung carcinoma cells; assay: Cell morphology by phase holographic imaging and transmission DIC; format: cell-based, human
Procedure: For cellular uptake assays, A549 lung carcinoma cells were grown overnight on 8-well chamber slides (Nalge Nunc, Rochester, NY). Cells were incubated 1 hour with 35 μM biotinylated peptide with or without 175 μM sodium oleate (Sigma) in serum free RPMI media, followed by fixation (4% paraformaldehyde) and permeabilization (0.25% Triton X-100, 5% FCS in phosphate-buffered saline). Peptides were visualized by incubation with streptavidin-Alexa568 (Molecular Probes) and Wheat Germ Agglutinin (WGA) (Molecular Probes) was used to visualize plasma and nuclear membranes. Images were captured on a LSM510 META confocal microscope (Carl Zeiss, Jena, Germany) with pinhole settings corresponding to one airy unit. Quantification of fluorescence intensities was performed with the ImageJ software. The HoloMonitorTM M3 digital holographic microscope (Phase Holographic Imaging AB, Lund, Sweden) records 3D information of cells using interfering wave fronts induced by the exposure to a 0.8 mW HeNe laser (633 nm), resembling a Mach-Zender interferometer where the cells, placed in one of the interfering wave fronts, induce a phase difference between the two beams [26]-[28]. The interference pattern (hologram) is recorded on a digital sensor and is used to reconstruct the amplitude and phase of the object as described, [30]. […]

[6] = Solubility of biotinylated peptide (remark); format: physicochemical; conditions: added at 12 µM instead of 105 uM
[7] = Small angle X-ray scattering, state in solution; format: physicochemical; conditions: 2.5 and 6.5 mg/ml in phosphate-buffered saline, 15 °C
Description: Small angle X-ray scattering (SAXS) data for HAMLET were collected at the German Electron Synchrotron (DESY) of the EMBL Hamburg using the X33 SAXS camera, [19] located on a bending magnet (sector D) on the storage ring DORIS III. Pilatus 1 M pixel detector (67×420 mm^2) that operates in single photon counting mode was used. A sample - detector distance of 2.4 m which covers the range of momentum transfer 0.1<s<4.5 nm^−1 (s = 4π sin(q)/λ, where q is the scattering angle and λ = 0.15 nm is the X-ray wavelength) was utilized. The calibration of the s-axis was done by the scattering pattern of Silver-behenate salt (d-spacing 5.84 nm). For each sample measurement the scattering from the buffer was measured before and after. The average scattering for the before and after buffer measured was calculated and it is used for background subtraction for each sample. In order to assess and remove any concentration-dependant inter-particle effects for HAMLET, the protein concentrations 2.5 and 6.5 mg/ml in phosphate-buffered saline were used for the measurement. Automated sample-changing robot was used for injecting the protein as well as the buffer samples at the SAXS station X33 [20]. […]
By comparing the forward scattering from the reference solution of bovine serum albumin (BSA), the molecular mass of HAMLET was calculated as described in [18]. […]

[8] = tested on: glioblastomas, papillomas and bladder cancer; conditions: ref [1]–[3]; cited from earlier work
Description: Healthy, differentiated cells are much less sensitive to HAMLET and toxic effects on healthy tissues have not been observed in tumor models.

Molecule	K^+ flux, + oleate [1]	K^+ flux, - oleate [1]	Ca^2+ flux, + oleate [2]	Ca^2+ flux, - oleate [2]	Na^+ flux, + oleate [3]	Na^+ flux, - oleate [3]	K^+ flux, substance alone [1]	Ca^2+ flux, substance alone [2]	Na^+ flux, substance alone [3]	Tumor cell killing in the absence of peptide ([4]; sodium oleate alone)	Cell morphology by transmission light DIC, oleate-free peptide or oleate alone ([5]; A549, 1 h)	Solubility [6]	Reduction of cell viability ([4]; HAMLET (positive control) or peptide mixed with sodium oleate, cell line not given) [%]	Morphological change by holographic imaging ([5]; adherent A549 cells, HAMLET or peptide-oleate mixture, images every 15 minutes)	Oligomeric state in solution ([7]; SAXS forward scattering vs BSA reference)	Protein aggregation (Guinier plot) ([7]; SAXS)	Therapeutic efficacy in vivo [8]
IVENNESTEYGLFQI [Peptide 5, 15-amino-acid peptide of α-lactalbumin library]	No	No	No	No	No	No	–	–	–	–	–	–	–	–	–	–	–
ATEKLEQWLAEKL [Peptide 12, C-terminal peptide of α-lactalbumin library]	No	No	No	No	No	No	–	–	–	–	–	–	–	–	–	–	–
NIADISADKFLDDDI [Peptide 8, 15-amino-acid peptide of α-lactalbumin library]	No	No	No	No	No	No	–	–	–	–	–	–	–	–	–	–	–
CCCCCCCC/C=C\CCCCCCCC(=O)O [Sodium oleate, sodium oleate, reference compound]	–	–	–	–	–	–	significant K^+ fluxes	not observed	not observed	did not kill the tumor cells	remain as flat and extended	–	–	–	–	–	–
LLKDIDGYGGIALPE [Peptide 2, 15-amino-acid peptide of α-lactalbumin library]	No	No	No	No	No	No	–	–	–	–	–	–	–	–	–	–	–
IALPELIATMFHTSG [Peptide 3, 15-amino-acid peptide of α-lactalbumin library]	No	No	No	No	No	No	–	–	–	–	–	–	–	–	–	–	–
AAKKILDIKGIDYWL [Peptide 10, 15-amino-acid peptide of α-lactalbumin library]	No	No	weaker Ca^2+ flux	weaker Ca^2+ flux	Weak Na^+ fluxes	–	–	–	–	–	–	–	–	–	–	–	–
IDYWLAHKALATEKL [Peptide 11, 15-amino-acid peptide of α-lactalbumin library]	triggered K^+ fluxes and Yes	triggered K^+ fluxes and Yes	increased Ca^2+ fluxes and Yes	increased Ca^2+ fluxes and Yes	No	No	–	–	–	–	–	–	–	–	–	–	–
AKSSQVPQSRNIADI [Peptide 7, 15-amino-acid peptide of α-lactalbumin library]	No	No	No	No	No	No	–	–	–	–	–	–	–	–	–	–	–
GLFQISNKLWAKSSQ [Peptide 6, 15-amino-acid peptide of α-lactalbumin library]	No	No	weaker Ca^2+ flux	No	Weak Na^+ fluxes	–	–	–	–	–	–	lower solubility	–	–	–	–	–
KQFTKAELSQLLKDI [Peptide 1, 15-amino-acid peptide of α-lactalbumin library, numbered from the N-terminal]	triggered K^+ fluxes and Yes	triggered K^+ fluxes and Yes	No	No	No	No	–	–	–	–	–	–	–	–	–	–	–
LDDDITDDIMAAKKI [Peptide 9, 15-amino-acid peptide of α-lactalbumin library]	No	No	No	No	No	No	–	–	–	–	–	–	–	–	–	–	–
FHTSGYDTQAIVENN [Peptide 4, 15-amino-acid peptide of α-lactalbumin library]	No	No	No	No	No	No	–	–	–	–	–	–	–	–	–	–	–
B1	–	–	–	–	–	–	rapid and sustained	rapid and sustained	Na^+ fluxes	–	–	–	90	increase in cellular optical thickness and a reduction in adherent surface area after 30 minutes, followed by cell detachment at later time points	monomeric	no protein aggregation	therapeutic efficacy
